Results taken from ChEMBL document CHEMBL3228035, “Deoxymorphines: role of the phenolic hydroxyl in antinociception and opiate receptor interactions” (J Med Chem, 1979).
Where a name gives a salt, the structure may show the parent alone.

Assays:
Mus musculus [1] = experiment: Antinociceptive activity in sc dosed mouse by Nilsen assay; assay type: functional
Mus musculus [2] = experiment: Antinociceptive activity in sc dosed mouse by hot-plate assay; assay type: functional

Compound | ED50 (Mus musculus [1]) [µmol/kg] | ED50 (Mus musculus [2]) [µmol/kg]
CN1CC[C@]23CCCC[C@H]2[C@H]1Cc1ccc(O)cc13 | 0.5 | 0.5
CN1CC[C@]23c4c5ccc(O)c4O[C@H]2[C@@H](O)C=C[C@H]3[C@H]1C5 | 4.1 | 3.3
O[C@H]1CC[C@H]2[C@H]3Cc4cccc5c4[C@@]2(CCN3)[C@H]1O5 | 67.8 | 45.3
CN1CC[C@]23c4c5cccc4O[C@H]2[C@@H](O)CC[C@H]3[C@H]1C5 | 8.1 | 4.2
CN1CC[C@]23c4c5cccc4O[C@H]2C(=O)CC[C@H]3[C@H]1C5 | 2.8 | 1.8
C=CCN1CC[C@]23c4c5cccc4O[C@H]2[C@@H](O)CC[C@H]3[C@H]1C5 | 59.9 | 44
c1cc2c3c(c1)O[C@H]1CCC[C@H]4[C@@H](C2)NCC[C@]314 | 4.4 | 1.3
CN1CC[C@]23c4c5ccc(O)c4O[C@H]2CCC[C@H]3[C@H]1C5 |  | 0.14
CN1CC[C@]23c4c5ccc(O)c4O[C@H]2[C@@H](O)CC[C@H]3[C@H]1C5 |  | 2.5
CN1CC[C@]23c4c5cccc4O[C@H]2[C@@H](O)C=C[C@H]3[C@H]1C5 | 30.9 | 8.6
CN1CCC23CCCCC2C1Cc1ccccc13 (racemic) |  | 16.5
CN1CC[C@]23c4c5ccc(O)c4O[C@H]2C(=O)CC[C@H]3[C@H]1C5 [HYDROMORPHONE HYDROCHLORIDE] | 0.7 | 0.4
C=CCN1CC[C@]23c4c5ccc(O)c4O[C@H]2[C@@H](O)C=C[C@H]3[C@H]1C5 [NALORPHINE HYDROCHLORIDE] | 13.8 | 105
